Experimental data reported in article PMC8512817 (Molecules, 2021).
Several values for one entry are separate records, joined by “and”; a condition that tells them apart may be missing. Identical values can stand only once. Peptide text beside a SMILES is read from it.

Target: T1, A9UPE9 PDZ (Monosiga brevicollis, UniProt A9UPE9)
Test: biochemical
Conditions: not given
Text: (§1) Starting with the HPV18 E6 C-terminal sequence, we designed a number of peptides to test specific peptide positions, including HPV16 E6, HPV18 E6, SRETTV, SRETDV, RRETTV, and RRETDV, where underlined residues differ from HPV18 E6. As a control, we also tested human SNX27, SHANK1, and GIPC PDZ targets previously studied, including GIRK3 (sequence: ESESKV), BPIX (WDETNL), GAIP (QSSSEA), TYRP1 (PNQSVV), and B1AR (ASESKV), as well as previously identified mbSHANK targets, including A9V7Z4 (EDETAL), A9UP44 (QSESRL), and A9UXE1 (QDETAL).
(§2) Figure 6 The binding isotherms from competition fluorescence polarization experiments of A9UPE9 (left, as labeled), and DLG1-1 (right, as labeled) PDZ domains are shown with the HPV18 E6 variant peptides SRETTV and SRETDV. The average values are shown, with error bars representing standard deviation from at least triplicate experiments.
(§3) Cells were lysed on ice using sonication.
(§4) Binding curves were visualized using Kaleidagraph.

T1 sequence (A9UPE9 7-98): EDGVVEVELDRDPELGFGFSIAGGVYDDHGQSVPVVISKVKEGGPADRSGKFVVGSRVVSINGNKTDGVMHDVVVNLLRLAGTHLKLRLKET

Structure (SMILES)	Ki
CC(C)[C@H](NC(=O)[C@@H](NC(=O)[C@H](CO)NC(=O)[C@H](CCC(=O)O)NC(=O)[C@H](CCCNC(=N)N)NC(=O)[C@@H](N)Cc1c[nH]cn1)[C@@H](C)O)C(=O)O [Peptide A9V6G5_MONBE] (H-HRESTV-OH)	< 100 µM and 97 µM
CC(C)[C@H](NC(=O)[C@H](CO)NC(=O)[C@H](CO)NC(=O)[C@H](CCC(=O)O)NC(=O)[C@H](CO)NC(=O)CN)C(=O)O [Peptide A9UWP5_MONVE] (H-GSESSV-OH)	490 ± 110 µM
CC[C@H](C)[C@H](NC(=O)[C@@H](N)C(C)C)C(=O)N[C@@H](C)C(=O)N[C@H](C(=O)N[C@@H](CCC(=O)O)C(=O)N[C@H](C(=O)O)C(C)C)[C@@H](C)O [DLL1/DLL4] (H-VIATEV-OH)	240 ± 40 µM

Same assay, conditions: KI Values (μM) A9UPE9 PDZ, Table 3; competition FP, reporter 30 nM F*-HPV18 E6, 10.5 μM protein, at least triplicate, fitted with SOLVER

Structure (SMILES)	Ki
C[C@H](NC(=O)[C@H](CCC(=O)O)NC(=O)[C@H](CO)NC(=O)[C@H](CO)NC(=O)[C@H](CO)NC(=O)[C@@H](N)CCC(N)=O)C(=O)O [GAIP] (H-QSSSEA-OH)	> 1000 µM
CC(C)[C@H](NC(=O)[C@H](CCCCN)NC(=O)[C@H](CO)NC(=O)[C@H](CCC(=O)O)NC(=O)[C@H](CO)NC(=O)[C@H](C)N)C(=O)O [Peptide B1AR] (H-ASESKV-OH)	95 ± 30 µM
CC(C)C[C@H](NC(=O)[C@H](CCC(N)=O)NC(=O)[C@@H](NC(=O)[C@H](CCC(=O)O)NC(=O)[C@H](CCCNC(=N)N)NC(=O)[C@H](CCCNC(=N)N)NC(=O)[C@@H](NC(=O)[C@H](CCCNC(=N)N)NC(=O)[C@H](CO)NC(=O)[C@@H](N)CO)[C@@H](C)O)[C@@H](C)O)C(=O)O [HPV16 E6]	66 ± 24 µM
CC(C)[C@H](NC(=O)[C@H](CCCCN)NC(=O)[C@H](CO)NC(=O)[C@H](CCC(=O)O)NC(=O)[C@H](CO)NC(=O)[C@@H](N)CCC(=O)O)C(=O)O [GIRK3] (H-ESESKV-OH)	> 1000 µM
CC(C)[C@H](NC(=O)[C@@H](NC(=O)[C@H](CO)NC(=O)[C@H](CCC(N)=O)NC(=O)[C@H](CC(N)=O)NC(=O)[C@@H]1CCCN1)C(C)C)C(=O)O [TYRP1] (H-PNQSVV-OH)	97 ± 24 µM
CC(C)C[C@H](NC(=O)[C@H](CCCNC(=N)N)NC(=O)[C@H](CO)NC(=O)[C@H](CCC(=O)O)NC(=O)[C@H](CO)NC(=O)[C@@H](N)CCC(N)=O)C(=O)O [Peptide A9UP44] (H-QSESRL-OH)	64 ± 35 µM
CC(C)C[C@H](NC(=O)[C@@H](N)CCCNC(=N)N)C(=O)N[C@@H](CCC(N)=O)C(=O)N[C@@H](CCCNC(=N)N)C(=O)N[C@@H](CCCNC(=N)N)C(=O)N[C@@H](CCCNC(=N)N)C(=O)N[C@@H](CCC(=O)O)C(=O)N[C@H](C(=O)N[C@@H](CCC(N)=O)C(=O)N[C@H](C(=O)O)C(C)C)[C@@H](C)O [HPV18 E6]	16 ± 1 µM
CC(C)C[C@H](NC(=O)[C@H](CC(N)=O)NC(=O)[C@@H](NC(=O)[C@H](CCC(=O)O)NC(=O)[C@H](CC(=O)O)NC(=O)[C@@H](N)Cc1c[nH]c2ccccc12)[C@@H](C)O)C(=O)O [BPIX] (H-WDETNL-OH)	330 ± 160 µM
CC(C)C[C@H](NC(=O)[C@H](C)NC(=O)[C@@H](NC(=O)[C@H](CCC(=O)O)NC(=O)[C@H](CC(=O)O)NC(=O)[C@@H](N)CCC(=O)O)[C@@H](C)O)C(=O)O [Peptide A9V7Z4] (H-EDETAL-OH)	580 ± 160 µM
CC(C)C[C@H](NC(=O)[C@H](C)NC(=O)[C@@H](NC(=O)[C@H](CCC(=O)O)NC(=O)[C@H](CC(=O)O)NC(=O)[C@@H](N)CCC(N)=O)[C@@H](C)O)C(=O)O [Peptide A9UXE1] (H-QDETAL-OH)	460 ± 210 µM

Target: DLG1-1 PDZ (Homo sapiens, UniProt Q12959)
Sequence (Q12959 220-317): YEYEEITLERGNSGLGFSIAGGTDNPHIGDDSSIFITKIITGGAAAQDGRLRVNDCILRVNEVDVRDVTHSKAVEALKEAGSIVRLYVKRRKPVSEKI
Test: biochemical
Conditions: not given
Text: as §1, §2, §3, §4

Structure (SMILES)	Ki
CC(C)C[C@H](NC(=O)[C@H](CC(N)=O)NC(=O)[C@@H](NC(=O)[C@H](CCC(=O)O)NC(=O)[C@H](CC(=O)O)NC(=O)[C@@H](N)Cc1c[nH]c2ccccc12)[C@@H](C)O)C(=O)O [BPIX] (H-WDETNL-OH)	460 ± 140 µM
CC(C)C[C@H](NC(=O)[C@H](C)NC(=O)[C@@H](NC(=O)[C@H](CCC(=O)O)NC(=O)[C@H](CC(=O)O)NC(=O)[C@@H](N)CCC(=O)O)[C@@H](C)O)C(=O)O [Peptide A9V7Z4] (H-EDETAL-OH)	460 ± 190 µM

Target: T1, A9UPE9 PDZ
Test: biochemical
Conditions: fluorescence polarization, 30 nM reporter peptide, triplicate experiments
Experimental: Expression and purification of all human and M. brevicollis PDZ domains followed a similar protocol, as previously reported for mbSHANK1 PDZ [48, 54]. Briefly, N-terminal His-tagged versions of A9UPE9 PDZ (residues 7–98) and DLG1-1 PDZ (residues 220–317) with cleavable TEV sites were inserted into the pET28a+ vector by gene synthesis (GenScript) and expressed in Escherichia coli BL21 (DE3) cells. Cells were lysed on ice using sonication. The lysis buffer used was 50 mM Tris pH 8.5, 200 mM NaCl, 10 mM CaCl2, 10 mM MgCl2, 20% (w/v) glycerol, 50 mM imidazole pH 8.5, 0.25 mM TCEP, DNAse, and protease inhibitor cocktail. Immobilized metal-affinity chromatography, 5 mL HisTrap (GE Healthcare, now Cytiva), was used to purify proteins from the clarified supernatant. The wash buffer used was 25 mM imidazole pH 8.5, 25 mM Tris pH 8.5, 250 mM NaCl, 10% (v/v) glycerol, and 0.25 mM TCEP, and the elution buffer was 400 mM imidazole pH 8.5, 25 mM Tris pH 8.5, 50 mM NaCl, 10% (v/v) glycerol, and 0.25 mM TCEP. Except for the protein used in binding experiments, the protein was then dialyzed in dialysis/gel filtration buffer (25 mM Tris pH 8.5, 150 mM NaCl, 10% (w/v) glycerol, 0.5 mM TCEP) and incubated at 4 °C overnight with TEV protease to cleave off the His-tag. The cleaved protein was then purified using a second nickel column with the wash and elution buffers described above. All proteins were further purified on a Superdex S75 column (Cytiva), using gel filtration buffer. Proteins were concentrated using Amicon centrifugal concentrators (3 MWCO). Concentrated proteins used in fluorescence polarization assays were flash frozen in liquid nitrogen for storage at −80 °C. The extinction coefficient values used for quantification of the proteins at A280 were 1490 cm^−1·M^−1 (A9UPE9) and 4470 cm^−1·M^−1 (DLG1-1).
Fluorescence polarization assays were conducted, as previously described [12, 45, 46, 48, 54, 60]. […] Competition experiments were performed in at least triplicate, and binding affinities were determined using SOLVER, as previously described [12, 45, 46, 48, 54, 60].

Structure (SMILES)	Kd
CC(C)C[C@H](NC(=O)[C@H](CCCNC(=N)N)NC(=S)Nc1ccc2c(c1)C(=O)OC21c2ccc(O)cc2Oc2cc(O)ccc21)C(=O)N[C@@H](CCC(N)=O)C(=O)N[C@@H](CCCNC(=N)N)C(=O)N[C@@H](CCCNC(=N)N)C(=O)N[C@@H](CCCNC(=N)N)C(=O)N[C@@H](CCC(=O)O)C(=O)N[C@H](C(=O)N[C@@H](CCC(N)=O)C(=O)N[C@H](C(=O)O)C(C)C)[C@@H](C)O [F*-HPV18 E6]	6.9 µM and < 10 µM

Same assay, conditions: fluorescence polarization, duplicate experiments

Structure (SMILES)	Kd
CC(C)C[C@H](NC(=O)[C@H](CCC(N)=O)NC(=O)[C@@H](NC(=O)[C@H](CCC(=O)O)NC(=O)[C@H](CCCNC(=N)N)NC(=O)[C@H](CCCNC(=N)N)NC(=O)[C@@H](NC(=O)[C@H](CCCNC(=N)N)NC(=O)[C@H](CO)NC(=O)[C@H](CO)NC(=S)Nc1ccc2c(c1)C(=O)OC21c2ccc(O)cc2Oc2cc(O)ccc21)[C@@H](C)O)[C@@H](C)O)C(=O)O [FITC-SSRTRRETQL]	19.5 ± 1.8 µM
